Laboratory results published in patent US20250123297A1, “Supermere Nanoparticles and Methods of Isolation and Use Thereof” (Vanderbilt University, priority 2021, published 2025).

Tests used:
[1] = system: MDA-MB-231 cells; test: Inhibition of cellular supermere uptake by uptake inhibitors; format: cell-based, human; conditions: 30 min pre-incubation with inhibitor, labeled supermeres 24 h, 100 nM bafilomycin A
Description: (§1) For inhibitor treatment before supermere uptake, MDA-MB-231 cells were seeded at 20,000 cells per well or Hela cells at 25,000 cells per well on a 35-mm dish (P35G-0.170-14-C, MatTek Corporation) in DMEM culture media. Twenty-four hours later, cells were pre-incubated with the inhibitors in serum free DMEM media for 30 min. The following inhibitors were used: 100 nM bafilomycin A (Sigma, SML1661-. 1ML), 20 μM dynasore (Sigma, D7693-5 MG), 25 μM CK666 (Sigma, SML0006), 5 μM cytochalasin D (Sigma, C2618-200 ul). The Alexa Fluor 647-labeled supermeres (40 μg/ml) were added to the cells for 24 h in the presence of indicated inhibitors. […] Brightfield (30 ms exposure time) and fluorescence (640 Far Red, 10% laser power, 100 ms exposure time) images were taken of 10 or more fields of view, each with several cells per field. Three z-slices 1 μm apart were taken of each fluorescent field and the brightest slice was analyzed.
(§2) Brightfield images were used to identify cell boundaries and an ROI was drawn manually around each cell in each field of view. These region of interests (ROIs) were then opened on the fluorescent image and the mean fluorescence intensity of each ROI (cell) was measured. For each field of view, a background ROI was drawn in a region with no cells, and this background value was subtracted from each cell fluorescence mean in the field of view. […]

[2] = system: Hela cells; test: as above; format: cell-based; conditions: 30 min pre-incubation with inhibitor, labeled supermeres 24 h, 100 nM bafilomycin A
Description: as §1, §2

In the case of `CO/C1=C\C(C)=C\[C@@H](C)[C@@H](O)[C@@H](C)C/C(C)=C/C=C/[C@H](OC)[C@@H]([C@@H](C)[C@@H](O)[C@H](C)[C@@]2(O)C[C@@H](O)[C@H](C)[C@@H](C(C)C)O2)OC1=O` [bafilomycin A], the “inhibition of supermere internalization” value [1] is reported as “greatest inhibition of supermere internalization” and the “inhibition of supermere internalization” value [2] is reported as “greatest inhibition of supermere internalization”.
